{"source": "patent US20220389067A1", "about": "“Methods of Treating Neurodegenerative Diseases Caused by G4C2 Expansion in C9ORF72” (The Board of Trustees of the Leland Stanford Junior …, priority 2019, published 2022)", "key": {"GR80": {"test_system": "GR80", "experiment": "Effect of CAT-tailing inhibition on poly(GR) level", "format": "cell-based", "settings": "FIG. 82", "from_the_text": "Ribosome-stalled NPC is modified by a non-templated, 40S-independent CAT-tailing process that depends on Tae2/Clbn/NEMF family proteins. CAT-tailed substrates escaping the quality control system can accumulate and form aggregates. […] Consistently, RNAi of a fly homolog of Vms1, a stress-responsive mitochondrial RQC factor that antagonizes CAT-tailing by cleaving peptidyl-tRNA bond, increased high MW GR80 signal and total GR80 abundance (FIG. 77), whereas overexpression of mammalian Vms1 (ANKZF1) had opposite effect (FIG. 78). In C9ALS fibroblasts, ANKZF1 RNAi increased, whereas NEMF RNAi decreased poly(GR) (FIG. 78). Thus steady-state poly(GR) level is positively correlated with a CAT-tailing-like process.\nThe role of Ala- or Thr-tRNA synthetase (AARS or TARS) was examined. […] The specificity of the ARS effect was shown by the lack of effect of the other ARSs tested (FIG. 79). Thus AARS/TARS, and possibly select other ARSs (e.g., IARS), appear to be involved in GR80 CAT-tailing, and that CAT-tailing confers stabilization, aggregation, and toxicity. Further supporting this notion, poly(GR) containing an artificial CAT-tail (GR71-AT15) formed prominent aggregates on mitochondria on its own, and its level was not affected by NEMF RNAi or anisomycin treatment (FIG. 82)."}, "[1]": {"test_system": "C9ALS/FTD BAC transgenic mice (C9-500)", "experiment": "Rotarod assay in C9-500 BAC transgenic mice", "format": "in vivo, mouse", "settings": "C9-500 mice, i.p. 40 mg/kg/day, FIG. 95", "method": "(§1) Non-canonical Notch regulation of poly(GR) was then tested in mammalian cells. In HEK293T cells, overexpression of Notch (FIG. 91), or treatment of cells with the ATK activator SC79 (FIGS. 91 & 92) reduced Flag-GR80 level, whereas small molecule inhibitor of AKT (AKTi) or VCP (VCPi) increased Flag-GR80 level (FIG. 93). Similar to fly tissue, the Notch overexpression effect was blocked by VCPi (FIG. 91). […] On the other hand, AKTi or VCPi increased poly(GR) level (FIGS. 78 & 94). To further test the in vivo relevance, the C9ALS/FTD BAC transgenic mice (C9-500) were examined, which express a human C9orf72 gene with ˜500 G4C2 repeats. Treatment of C9-500 mice by i.p. injection of SC79 (40 mg/kg/day) improved motor behavior as detected with the rotarod assay (FIG. 95). This was correlated with rescue of muscle mitochondrial morphology (FIGS. 95 & 96) and reduction of poly(GR) (FIGS. 97 & 98) but not poly(GA) (FIGS. 98 & 99) levels in muscle tissue. […]\nFemale C9-500 BAC transgenic mice were i.p. injected with sc79 (Selleckchem) at 40 mg/kg/day (n=10) or vehicle (DMSO [Sigma]: PEG300 [Spectrum]: 2-Hydroxypropyl-beta-cyclodextran (20%) [Sigma] at 1:3:1) (n=8) from 16 weeks of age and continued for 3 months. […] Once all the mice were “ready”, the start button was pushed and the test began. […] The fall-off times of each animal were recorded and used for statistical analysis."}, "[2]": {"test_system": "Flag-GR80 in HEK293T cells", "experiment": "Flag-GR80 level in HEK293T cells (non-canonical Notch/AKT/VCP modulation)", "format": "cell-based", "settings": "FIGS. 91-93"}, "[3]": {"test_system": "muscle tissue of C9-500 mice", "experiment": "Muscle mitochondrial morphology and DPR levels in C9-500 mice", "format": "in vivo, mouse", "settings": "i.p. 40 mg/kg/day", "method": "as §1\nFemale C9-500 BAC transgenic mice were i.p. injected with sc79 (Selleckchem) at 40 mg/kg/day (n=10) or vehicle (DMSO [Sigma]: PEG300 [Spectrum]: 2-Hydroxypropyl-beta-cyclodextran (20%) [Sigma] at 1:3:1) (n=8) from 16 weeks of age and continued for 3 months. […] Once all the mice were “ready”, the start button was pushed and the test began. […] The fall-off times of each animal were recorded and used for statistical analysis. […]"}, "patient fibroblasts": {"test_system": "patient fibroblasts", "experiment": "poly(GR) level and mitochondrial morphology in patient fibroblasts (AKT/VCP modulation)", "format": "cell-based, human"}, "[4]": {"test_system": "fibroblasts from C9-ALS/FTD patients carrying C9ORF72 G4C2 repeat expansion", "experiment": "Nigericin treatment of C9-ALS/FTD patient fibroblasts", "format": "cell-based, human", "method": "(§2) Finally, it was tested whether the pathogenic mechanisms uncovered in flies are relevant to GR toxicity in patient cells. In fibroblasts from C9-ALS/FTD patients carrying C9ORF72 G4C2 repeat expansion, GR was present in the mitochondrial fraction, as shown by dot blot (FIG. 46) and immunostaining (FIG. 46), although nuclear GR was also detected (FIG. 46). […] Thus, altered mitochondrial inner membrane structure and ion homeostasis are conserved features of C9-ALS. There were also GR interactions with Mic27/Apool in patient fibroblasts (FIG. 49). Nigericin treatment (FIGS. 50 & 51) or knockdown of key MICOS components (FIGS. 49 & 52) rescued the mitochondrial defects in patient fibroblasts. […] Nigericin treatment (FIG. 54) or knockdown of key MICOS components (FIG. 53) reduced the GR level in patient cells, but nigericin had no effect on the GA level (FIG. 53)."}, "[5]": {"test_system": "HEK293 cells transfected with GR80", "experiment": "mito-K+ in HEK293 cells transfected with GR80", "format": "cell-based", "settings": "HEK293 cells transfected with GR80, FIG. 53", "method": "as §2"}, "GR80 fly muscle": {"test_system": "GR80 fly muscle", "experiment": "Nigericin treatment of GR80 transgenic flies", "format": "in vivo, Drosophila", "from_the_text": "To further test whether high MMP and altered ion homeostasis contribute to GR80 toxicity, GR80 flies we treated with nigericin, a K^+/H^+ antiporter that can re-balance mitochondrial matrix ion levels. […] Moreover, the aberrant interactions between MICOS subunits caused by GR80 (FIG. 42) and the elevated mito-K^+ in GR80 flies were rescued after nigericin treatment (FIGS. 41 & 42). Thus, by restoring mitochondrial ion homeostasis, nigericin may affect the MICOS structure and, in turn, GR80 stability, similar to the effects of the genetic manipulation of MICOS, although other mechanisms of nigericin action cannot be excluded.\nNewly hatched flies were collected and placed into vials with instant fly food (Carolina Biological Supply Company, USA) mixed with different doses ([…]) of Nigericin (Cayman Chemical, 11437) from the stock solution (50 mM dissolved in DMSO). The flies were fed for 7 days and changed with fresh vial every 24 hours. After treatments, fly thoracic samples were harvested and used for sample preparation."}}}
{"compound": "COc1ccc(C[C@H]2NC[C@H](O)[C@H]2OC(C)=O)cc1", "note": "[Anisomycin, anisomycin]", "values": [{"measurement": "level of poly(GR) containing an artificial CAT-tail (GR71-AT15)", "setting": "GR80", "value": "not affected"}]}
{"compound": "CCOC(=O)C1=C(N)Oc2ccc(Cl)cc2C1C(C#N)C(=O)OCC", "note": "(centres unmarked) [SC79]", "values": [{"measurement": "motor behavior as detected with the rotarod assay", "setting": "[1]", "value": "improved"}, {"measurement": "Flag-GR80 level", "setting": "[2]", "value": "reduced"}, {"measurement": "muscle mitochondrial morphology", "setting": "[3]; FIGS. 95 & 96", "value": "rescue"}, {"measurement": "poly(GR) level in muscle tissue", "setting": "[3]; FIGS. 97 & 98", "value": "reduction"}, {"measurement": "mitochondrial morphology", "setting": "patient fibroblasts; FIG. 93", "value": "rescued"}, {"measurement": "poly(GR) level", "setting": "patient fibroblasts; FIGS. 78 & 94", "value": "significantly reduced"}]}
{"compound": "CO[C@@H]1C[C@@H](C[C@H]2CC[C@H](C)[C@H]([C@@H](C)C(=O)O)O2)O[C@]2(O[C@](C)([C@H]3CC[C@@](C)([C@@H]4O[C@@H]([C@H]5O[C@@](O)(CO)[C@H](C)C[C@@H]5C)C[C@@H]4C)O3)C[C@H]2C)[C@@H]1C", "note": "[nigericin]", "values": [{"measurement": "GR level in patient cells", "setting": "[4]; C9-ALS/FTD patient fibroblasts, FIG. 54", "value": "reduced"}, {"measurement": "mitochondrial defects in patient fibroblasts", "setting": "[4]; C9-ALS/FTD patient fibroblasts, FIGS. 50 & 51", "value": "rescued"}, {"measurement": "GA level", "setting": "[4]; patient cells, FIG. 53", "value": "no effect"}, {"measurement": "GR-induced mito-K+ increase", "setting": "[5]", "value": "reduced"}, {"measurement": "GR80 level in fly muscle", "setting": "GR80 fly muscle; GR80 flies, FIG. 44", "value": "significantly reduced"}, {"measurement": "mitochondrial morphology", "setting": "GR80 fly muscle; GR80 flies, low concentrations of nigericin in food, FIG. 43", "value": "effectively restored"}, {"measurement": "GR80 fly wing-posture defect", "setting": "GR80 fly muscle; GR80 flies, nigericin in food, FIG. 44", "value": "rescue"}, {"measurement": "aberrant interactions between MICOS subunits caused by GR80", "setting": "GR80 fly muscle; after nigericin treatment, FIG. 42", "value": "rescued"}, {"measurement": "elevated mito-K+ in GR80 flies", "setting": "GR80 fly muscle; after nigericin treatment, FIGS. 41 & 42", "value": "rescued"}, {"measurement": "GA80 level", "setting": "GR80 fly muscle; flies, specificity control, FIG. 42", "value": "did not affect"}]}
